Values quoted from earlier work in article PMC5812370 (Biochemistry, 2017).

Legend:
[1] = biological target: uPAR·uPA protein–protein interaction (Homo sapiens, UniProt Q03405)
[2] = biological target: uPAR (Homo sapiens, UniProt Q03405)
Chain of uPAR (Q03405 23-305 limits assumed): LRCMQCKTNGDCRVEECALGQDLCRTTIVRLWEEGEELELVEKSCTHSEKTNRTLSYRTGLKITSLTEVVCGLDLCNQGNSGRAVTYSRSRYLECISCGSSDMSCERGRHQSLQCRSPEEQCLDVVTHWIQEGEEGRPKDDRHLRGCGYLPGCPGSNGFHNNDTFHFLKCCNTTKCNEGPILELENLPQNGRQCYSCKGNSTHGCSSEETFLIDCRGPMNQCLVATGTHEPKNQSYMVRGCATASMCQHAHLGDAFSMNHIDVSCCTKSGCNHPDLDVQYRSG

Chain of uPAR·uPA protein–protein interaction (Q03405 23-305 limits assumed): as above

Which “IC50 for inhibition of the uPAR·uPA complex (in words)” value [1] does the source give for O=C(O)c1cccc(Nc2cc(N3CCCCCC3)c3noc4c3c2C(=O)c2ccccc2-4)c1 [Compound 2] here?
Its value is “single-digit micromolar”.

What about the “binding affinity to uPAR (in words)” value [2] of the same molecule?
The value was “submicromolar”.
